Values joined by “and” are separate entries in the source; they are usually repeats but may differ in a detail not shown here. Equal values may be shown once. Toxic doses and inconclusive results are not listed. No stated cut-off is given here; in the data, active means T/C of 150% or more; inactive means T/C below 125%.
Tested on: L1210 leukemia ip in BDF1 mice, survival T/C
Assay: NCI In Vivo Anticancer Drug Screen. Data for tumor model L1210 Leukemia (intraperitoneal) in B6D2F1 (BDF1) mice
Details: endpoint: mean survival time, higher = longer survival
Procedure, shortened: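 Antitumor effect is assessed in tumor-bearing animals. Survival in the compound arm is compared with a vehicle-dosed control arm and expressed as their quotient.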

[1] = dose: 100.0 mg/kg/injection, schedule: Q01DX001 (ip), vehicle: saline
[2] = dose: 100.0 mg/kg/injection, schedule: Q01DX009 (ip), vehicle: saline
[3] = dose: 100.0 mg/kg/injection, schedule: Q04DX003 (ip), vehicle: saline
[4] = dose: 200.0 mg/kg/injection, schedule: Q01DX001 (ip), vehicle: saline
[5] = dose: 200.0 mg/kg/injection, schedule: Q04DX003 (ip), vehicle: saline
[6] = dose: 400.0 mg/kg/injection, schedule: Q01DX001 (ip), vehicle: saline
[7] = dose: 400.0 mg/kg/injection, schedule: Q04DX003 (ip), vehicle: saline
[8] = dose: 100.0 mg/kg/injection, schedule: Q01DX001 (ip), vehicle: carboxymethylcellulose (CMC)
[9] = dose: 100.0 mg/kg/injection, schedule: Q01DX009 (ip), vehicle: Klucel (hydroxypropylcellulose) (HPC)
[10] = dose: 200.0 mg/kg/injection, schedule: Q01DX009 (ip), vehicle: Klucel (hydroxypropylcellulose) (HPC)

Measured: T/C

O=C(Nc1ccc(S(=O)(=O)O)cc1)c1ccc([N+](=O)[O-])cc1
inactive: dose: 50.0 mg/kg/injection, schedule: Q01DX001 (ip), vehicle: saline 92 % of control | [1] 103 % of control | [2] 95 % of control | [3] 100 % of control | [4] 97 % of control | dose: 200.0 mg/kg/injection, schedule: Q01DX009 (ip), vehicle: saline 102 % of control | [5] 91 % of control | [6] 97 % of control | dose: 400.0 mg/kg/injection, schedule: Q01DX009 (ip), vehicle: saline 100 % of control | [7] 100 % of control

N=C(N)C[n+]1ccccc1
inactive: [1] 98 % of control | [3] 95 % of control | [4] 109 % of control | [5] 111 % of control | [6] 104 % of control | [7] 89 % of control

OCC1N=C(c2ccccc2)OC1c1ccccc1 (stereo unspecified)
inactive: dose: 50.0 mg/kg/injection, schedule: Q01DX009 (ip), vehicle: saline with Tween-80 94 % of control | dose: 100.0 mg/kg/injection, schedule: Q01DX009 (ip), vehicle: saline with Tween-80 102 % of control | dose: 200.0 mg/kg/injection, schedule: Q01DX009 (ip), vehicle: saline with Tween-80 96 % of control

COc1cc(OC)c(OC)cc1CNC1CCCCCCC1
inactive: dose: 25.0 mg/kg/injection, schedule: Q04DX002 (ip), vehicle: saline 102 % of control | dose: 50.0 mg/kg/injection, schedule: Q04DX002 (ip), vehicle: saline 91 % of control | dose: 100.0 mg/kg/injection, schedule: Q04DX002 (ip), vehicle: saline 105 % of control and 115 % of control

CC(C)OC(=O)C(C)OC(=O)OCCOCCOC(=O)OC(C)C(=O)OC(C)C (stereo unspecified)
inactive: [1] 96 % of control | [4] 100 % of control | [6] 100 % of control

CCOC(=S)c1ccc(S(=O)(=O)NC)cc1
inactive: dose: 100.0 mg/kg/injection, schedule: Q01DX001 (ip), vehicle: Klucel (hydroxypropylcellulose) (HPC) 109 % of control | dose: 200.0 mg/kg/injection, schedule: Q01DX001 (ip), vehicle: Klucel (hydroxypropylcellulose) (HPC) 100 % of control | dose: 400.0 mg/kg/injection, schedule: Q01DX001 (ip), vehicle: Klucel (hydroxypropylcellulose) (HPC) 110 % of control

N#CC(C#N)=Cc1cccnc1
inactive: dose: 12.5 mg/kg/injection, schedule: Q04DX003 (ip), vehicle: Klucel (hydroxypropylcellulose) (HPC) 98 % of control | dose: 25.0 mg/kg/injection, schedule: Q04DX003 (ip), vehicle: Klucel (hydroxypropylcellulose) (HPC) 100 % of control | dose: 50.0 mg/kg/injection, schedule: Q01DX001 (ip), vehicle: carboxymethylcellulose (CMC) 101 % of control | dose: 50.0 mg/kg/injection, schedule: Q04DX003 (ip), vehicle: Klucel (hydroxypropylcellulose) (HPC) 93 % of control and 104 % of control | [8] 98 % of control

Cc1cc2ncn(C(=O)Nc3ccccc3)c2cc1C
inactive: dose: 100.0 mg/kg/injection, schedule: Q04DX003 (ip), vehicle: saline with Tween-80 92 % of control | dose: 200.0 mg/kg/injection, schedule: Q04DX003 (ip), vehicle: saline with Tween-80 87 % of control | dose: 400.0 mg/kg/injection, schedule: Q04DX003 (ip), vehicle: saline with Tween-80 90 % of control

C/C=C(\c1ccccc1)[N+](=O)[O-]
inactive: dose: 12.5 mg/kg/injection, schedule: Q01DX001 (ip), vehicle: acetone 100 % of control | dose: 12.5 mg/kg/injection, schedule: Q04DX003 (ip), vehicle: acetone 98 % of control | dose: 18.75 mg/kg/injection, schedule: Q01DX009 (ip), vehicle: acetone 98 % of control | dose: 25.0 mg/kg/injection, schedule: Q01DX001 (ip), vehicle: acetone 92 % of control | dose: 25.0 mg/kg/injection, schedule: Q04DX003 (ip), vehicle: acetone 98 % of control | dose: 37.5 mg/kg/injection, schedule: Q01DX009 (ip), vehicle: acetone 106 % of control | dose: 50.0 mg/kg/injection, schedule: Q01DX001 (ip), vehicle: acetone 97 % of control | dose: 50.0 mg/kg/injection, schedule: Q04DX003 (ip), vehicle: acetone 100 % of control | dose: 75.0 mg/kg/injection, schedule: Q01DX009 (ip), vehicle: acetone 88 % of control | dose: 75.0 mg/kg/injection, schedule: Q04DX003 (ip), vehicle: saline 94 % of control

Cc1nonc1-c1ccc2c(c1)OCO2
inactive: dose: 100.0 mg/kg/injection, schedule: Q04DX003 (ip), vehicle: Klucel (hydroxypropylcellulose) (HPC) 103 % of control | dose: 200.0 mg/kg/injection, schedule: Q04DX003 (ip), vehicle: Klucel (hydroxypropylcellulose) (HPC) 97 % of control | dose: 400.0 mg/kg/injection, schedule: Q04DX003 (ip), vehicle: Klucel (hydroxypropylcellulose) (HPC) 101 % of control

COc1ccccc1NC(=O)NCCO
inactive: [8] 103 % of control | dose: 200.0 mg/kg/injection, schedule: Q01DX001 (ip), vehicle: carboxymethylcellulose (CMC) 95 % of control | dose: 400.0 mg/kg/injection, schedule: Q01DX001 (ip), vehicle: carboxymethylcellulose (CMC) 103 % of control

CN1CCC=Cc2ccccc21
inactive: [2] 97 % of control | [3] 92 % of control | [5] 95 % of control | [7] 90 % of control

C/C=C/C(=O)Nc1ccccc1F
inactive: [9] 93 % of control | [10] 103 % of control

CC1(C)NCC(=O)N1C(Cc1ccccc1)C(=O)O (stereo unspecified)
inactive: [1] 100 % of control | [4] 97 % of control | [6] 100 % of control

O=C(Nc1cccc(Cl)c1Cl)N1CCN(c2ccccc2)CC1
inactive: [9] 92 % of control | [10] 96 % of control | dose: 400.0 mg/kg/injection, schedule: Q01DX009 (ip), vehicle: Klucel (hydroxypropylcellulose) (HPC) 97 % of control

CCOC(=O)CCCNCCCC(=O)OCC
inactive: [1] 97 % of control | [4] 103 % of control | [6] 114 % of control

O=P(O)(c1cccc(Cl)c1)c1cccc(Cl)c1
inactive: dose: 100.0 mg/kg/injection, schedule: Q01DX001 (ip), vehicle: acetone 91 % of control | dose: 100.0 mg/kg/injection, schedule: Q04DX003 (ip), vehicle: acetone 97 % of control | dose: 200.0 mg/kg/injection, schedule: Q01DX001 (ip), vehicle: acetone 96 % of control | dose: 200.0 mg/kg/injection, schedule: Q04DX003 (ip), vehicle: acetone 107 % of control | dose: 400.0 mg/kg/injection, schedule: Q01DX001 (ip), vehicle: acetone 91 % of control | dose: 400.0 mg/kg/injection, schedule: Q04DX003 (ip), vehicle: acetone 97 % of control

CC12CCC(/C(=N/O)C1=O)C2(C)C (stereo unspecified)
inactive: dose: 100.0 mg/kg/injection, schedule: Q04DX002 (ip), vehicle: Klucel (hydroxypropylcellulose) (HPC) 106 % of control | dose: 200.0 mg/kg/injection, schedule: Q04DX002 (ip), vehicle: Klucel (hydroxypropylcellulose) (HPC) 110 % of control | dose: 400.0 mg/kg/injection, schedule: Q04DX002 (ip), vehicle: Klucel (hydroxypropylcellulose) (HPC) 103 % of control
